Laboratory results published in PubChem BioAssay (NCI).
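Cultured in 96-well plates, cells were exposed to test compound for 48 hours across five concentrations. The concentration for full growth arrest is given as TGI.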

tested on: UO-31 renal; experiment: growth of human tumour cells (NCI), 48 h

Going from COc1cc2c3c(c1OC)C1(C=CC(=O)C=C1)C[C@H]3N(C)CC2 to COc1cc(OC)c(C2c3cc4c(cc3OC(N3CCCC3)C2C)OCO4)c(OC)c1 (stereo not drawn), the TGI falls from > 100 µM to 25.8 µM.

O=NN(CCCl)C(=O)NC1CCC(O)CC1 (stereo not drawn) and CC(=O)O[C@]12CCCCCC1C1(O)C(O)CCCC[C@H]12 (stereo partly drawn) cannot be ordered by TGI: > 100 µM for the first, > 100 µM for the second.

CC(=O)NC1c2ccccc2C(C)(C)C12CCC1(CC2)OCCO1 (stereo not drawn) and O=C1c2ccccc2C2(c3ccc(Cl)cc3)N[C@H]3CCCC[C@@H]3N12 (stereo partly drawn) cannot be ordered by TGI: > 100 µM for the first, > 100 µM for the second.

Compared with [N-]=[N+]=NC1=C(c2ccccn2)C(=O)c2cccc3cccc1c23, Cc1ccc(S(=O)(=O)C(C#N)c2nc3ccccc3nc2-n2ccnc2)cc1 (stereo not drawn) is higher in TGI: 36.1 µM for the first, > 100 µM for the second.

CC1=NNC(=O)C1C(CC(=O)c1c[nH]c2ccccc12)C(=O)O (stereo not drawn) and COC(=O)C1=C(C)NC(C)=C(C(=O)OC)C1c1nc2sccn2c1[N+](=O)[O-] cannot be ordered by TGI: > 100 µM for the first, > 100 µM for the second.

Cc1ccc(O)c(-c2cscn2)c1 and CSc1sc2ccccc2[s+]1 cannot be ordered by TGI: > 100 µM for the first, > 100 µM for the second.

Going from CC(C(O)Cc1ccccc1)N(C)N=Nc1ccc([N+](=O)[O-])cc1 (stereo not drawn) to O=C(CN(c1ccccc1)c1ccccc1)n1nnc2ccccc21, the TGI rises from 31.8 µM to 55.2 µM (1.7-fold).

First: COC(=O)C1CCCN1C(=O)C(Cc1cn(S(=O)(=O)c2ccc(C)cc2)cn1)NC(=O)OC(C)(C)C (stereo not drawn)
Second: Cn1c(COC(=O)Nc2ccccc2)c(COC(=O)Nc2ccccc2)c2ccc3cc(Cl)c(Cl)cc3c21
The TGI of the first is higher: > 100 µM for the first, 26.5 µM for the second.

For O=c1c(C(c2ccc(Cl)cc2)c2c(O)c3ccccc3n(-c3ccccc3)c2=O)c(O)c2ccccc2n1-c1ccccc1, the TGI was > 100 µM.

tested on: MDA-MB-435; experiment: growth of human tumour cells (NCI), 48 h

First: O=C1/C(=C/c2ccc(Cl)cc2)CSc2ccccc21
Second: O=C1c2ccccc2C2(c3ccc(Cl)cc3)N[C@H]3CCCC[C@@H]3N12 (stereo partly drawn)
The TGI of the first is lower: 20.7 µM for the first, > 100 µM for the second.

Compared with CCCCN=C(c1ccccc1)N1CCOCC1, CC(C(O)Cc1ccccc1)N(C)N=Nc1ccc([N+](=O)[O-])cc1 (stereo not drawn) is lower in TGI: > 100 µM for the first, 40.9 µM for the second.

CC(C)CC(O)P(=O)(O)O (stereo not drawn) and CC1=NNC(=O)C1C(CC(=O)c1c[nH]c2ccccc12)C(=O)O (stereo not drawn) cannot be ordered by TGI: > 100 µM for the first, > 100 µM for the second.

Compared with [N-]=[N+]=NC1=C(c2ccccn2)C(=O)c2cccc3cccc1c23, Cn1c(COC(=O)Nc2ccccc2)c(COC(=O)Nc2ccccc2)c2ccc3cc(Cl)c(Cl)cc3c21 is lower in TGI: > 100 µM for the first, 29.1 µM for the second.

Cc1ccc(O)c(-c2cscn2)c1 and COC(=O)C1=C(C)NC(C)=C(C(=O)OC)C1c1nc2sccn2c1[N+](=O)[O-] cannot be ordered by TGI: > 100 µM for the first, > 100 µM for the second.

tested on: HT29 colon; experiment: growth of human tumour cells (NCI), 48 h

COc1c(C(C)C)cc2c3c1OC(=O)[C@@]31CCCC(C)(C)C1CC2 (stereo partly drawn) and COc1cc2c3c(c1OC)C1(C=CC(=O)C=C1)C[C@H]3N(C)CC2 cannot be ordered by TGI: > 100 µM for the first, > 100 µM for the second.

OCc1ccc(C2CC(c3ccco3)=NN2c2ccccc2)o1 (stereo not drawn) and O=C(CN(c1ccccc1)c1ccccc1)n1nnc2ccccc21 cannot be ordered by TGI: > 100 µM for the first, > 100 µM for the second.

COc1ccc(C2COc3cc(O)c(O)cc3C2)cc1 (stereo not drawn) and Cc1ccc(O)c(-c2cscn2)c1 cannot be ordered by TGI: 204 µM for the first, > 100 µM for the second.

Going from O=C1/C(=C/c2ccc(Cl)cc2)CSc2ccccc21 to O=C1c2ccccc2C2(c3ccc(Cl)cc3)N[C@H]3CCCC[C@@H]3N12 (stereo partly drawn), the TGI rises from 49.6 µM to > 100 µM.

CCCCN=C(c1ccccc1)N1CCOCC1 and CC(=O)NC1c2ccccc2C(C)(C)C12CCC1(CC2)OCCO1 (stereo not drawn) cannot be ordered by TGI: > 100 µM for the first, > 100 µM for the second.

First: CCOC(=O)c1ccc(C)c(N=NN(C)C)c1
Second: CC(C(O)Cc1ccccc1)N(C)N=Nc1ccc([N+](=O)[O-])cc1 (stereo not drawn)
The TGI of the first is higher: > 100 µM for the first, 37.2 µM for the second.

CC(C)CC(O)P(=O)(O)O (stereo not drawn) and CC1=NNC(=O)C1C(CC(=O)c1c[nH]c2ccccc12)C(=O)O (stereo not drawn) cannot be ordered by TGI: > 100 µM for the first, > 100 µM for the second.

Cc1ccc(S(=O)(=O)NC(=O)N[C@@H](Cc2cnc[nH]2)C(=O)O)cc1 and COC(=O)C1CCCN1C(=O)C(Cc1cn(S(=O)(=O)c2ccc(C)cc2)cn1)NC(=O)OC(C)(C)C (stereo not drawn) cannot be ordered by TGI: > 100 µM for the first, > 100 µM for the second.

O=NN(CCCl)C(=O)NC1CCC(O)CC1 (stereo not drawn) and CC(=O)O[C@]12CCCCCC1C1(O)C(O)CCCC[C@H]12 (stereo partly drawn) cannot be ordered by TGI: > 100 µM for the first, > 100 µM for the second.

[N-]=[N+]=NC1=C(c2ccccn2)C(=O)c2cccc3cccc1c23 and Cc1ccc(S(=O)(=O)C(C#N)c2nc3ccccc3nc2-n2ccnc2)cc1 (stereo not drawn) cannot be ordered by TGI: > 100 µM for the first, > 100 µM for the second.

Compared with CSc1sc2ccccc2[s+]1, Cn1c(COC(=O)Nc2ccccc2)c(COC(=O)Nc2ccccc2)c2ccc3cc(Cl)c(Cl)cc3c21 is lower in TGI: > 100 µM for the first, 23.6 µM for the second.

COc1cc(OC)c(C2c3cc4c(cc3OC(N3CCCC3)C2C)OCO4)c(OC)c1 (stereo not drawn) was tested, and the TGI was 28.7 µM.

tested on: NCI-H522 lung; experiment: growth of human tumour cells (NCI), 48 h

Compared with COc1c(C(C)C)cc2c3c1OC(=O)[C@@]31CCCC(C)(C)C1CC2 (stereo partly drawn), COc1cc2c3c(c1OC)C1(C=CC(=O)C=C1)C[C@H]3N(C)CC2 is higher in TGI: 38.7 µM for the first, > 100 µM for the second.

Going from OCc1ccc(C2CC(c3ccco3)=NN2c2ccccc2)o1 (stereo not drawn) to O=C(CN(c1ccccc1)c1ccccc1)n1nnc2ccccc21, the TGI falls from > 100 µM to 59.1 µM.

Going from COc1ccc(C2COc3cc(O)c(O)cc3C2)cc1 (stereo not drawn) to COc1cc(OC)c(C2c3cc4c(cc3OC(N3CCCC3)C2C)OCO4)c(OC)c1 (stereo not drawn), the TGI rises from 14.1 µM to 48.7 µM (3.5-fold).

CCOC(=O)c1ccc(C)c(N=NN(C)C)c1 and CC1=NNC(=O)C1C(CC(=O)c1c[nH]c2ccccc12)C(=O)O (stereo not drawn) cannot be ordered by TGI: > 100 µM for the first, > 100 µM for the second.

Cc1ccc(S(=O)(=O)NC(=O)N[C@@H](Cc2cnc[nH]2)C(=O)O)cc1 and Cc1ccc(S(=O)(=O)C(C#N)c2nc3ccccc3nc2-n2ccnc2)cc1 (stereo not drawn) cannot be ordered by TGI: > 100 µM for the first, > 100 µM for the second.

First: O=NN(CCCl)C(=O)NC1CCC(O)CC1 (stereo not drawn)
Second: CC(=O)O[C@]12CCCCCC1C1(O)C(O)CCCC[C@H]12 (stereo partly drawn)
The TGI of the first is lower: 55.4 µM for the first, > 100 µM for the second.

CC(=O)NC1c2ccccc2C(C)(C)C12CCC1(CC2)OCCO1 (stereo not drawn) and CSc1sc2ccccc2[s+]1 cannot be ordered by TGI: > 100 µM for the first, > 100 µM for the second.

O=c1c(C(c2ccc(Cl)cc2)c2c(O)c3ccccc3n(-c3ccccc3)c2=O)c(O)c2ccccc2n1-c1ccccc1 was tested, and the TGI was > 100 µM.

tested on: HOP-62 NSCLC; experiment: growth of human tumour cells (NCI), 48 h

COc1c(C(C)C)cc2c3c1OC(=O)[C@@]31CCCC(C)(C)C1CC2 (stereo partly drawn) and CC(=O)NC1c2ccccc2C(C)(C)C12CCC1(CC2)OCCO1 (stereo not drawn) cannot be ordered by TGI: > 100 µM for the first, > 100 µM for the second.

OCc1ccc(C2CC(c3ccco3)=NN2c2ccccc2)o1 (stereo not drawn) and O=C(CN(c1ccccc1)c1ccccc1)n1nnc2ccccc21 cannot be ordered by TGI: > 100 µM for the first, > 100 µM for the second.

COc1ccc(C2COc3cc(O)c(O)cc3C2)cc1 (stereo not drawn) and Cc1ccc(O)c(-c2cscn2)c1 cannot be ordered by TGI: 232 µM for the first, > 100 µM for the second.

First: O=C1/C(=C/c2ccc(Cl)cc2)CSc2ccccc21
Second: O=C1c2ccccc2C2(c3ccc(Cl)cc3)N[C@H]3CCCC[C@@H]3N12 (stereo partly drawn)
The TGI of the first is lower: 63.9 µM for the first, > 100 µM for the second.

First: CCCCN=C(c1ccccc1)N1CCOCC1
Second: CC(C(O)Cc1ccccc1)N(C)N=Nc1ccc([N+](=O)[O-])cc1 (stereo not drawn)
The TGI of the first is higher: > 100 µM for the first, 37.5 µM for the second.

CCOC(=O)c1ccc(C)c(N=NN(C)C)c1 and CC1=NNC(=O)C1C(CC(=O)c1c[nH]c2ccccc12)C(=O)O (stereo not drawn) cannot be ordered by TGI: > 100 µM for the first, > 100 µM for the second.

CC(C)CC(O)P(=O)(O)O (stereo not drawn) and Cc1ccc(S(=O)(=O)NC(=O)N[C@@H](Cc2cnc[nH]2)C(=O)O)cc1 cannot be ordered by TGI: > 100 µM for the first, > 100 µM for the second.

O=NN(CCCl)C(=O)NC1CCC(O)CC1 (stereo not drawn) and CC(=O)O[C@]12CCCCCC1C1(O)C(O)CCCC[C@H]12 (stereo partly drawn) cannot be ordered by TGI: > 100 µM for the first, > 100 µM for the second.

[N-]=[N+]=NC1=C(c2ccccn2)C(=O)c2cccc3cccc1c23 and Cc1ccc(S(=O)(=O)C(C#N)c2nc3ccccc3nc2-n2ccnc2)cc1 (stereo not drawn) cannot be ordered by TGI: > 100 µM for the first, > 100 µM for the second.

CSc1sc2ccccc2[s+]1 and O=c1c(C(c2ccc(Cl)cc2)c2c(O)c3ccccc3n(-c3ccccc3)c2=O)c(O)c2ccccc2n1-c1ccccc1 cannot be ordered by TGI: > 100 µM for the first, > 100 µM for the second.

Going from COc1cc(OC)c(C2c3cc4c(cc3OC(N3CCCC3)C2C)OCO4)c(OC)c1 (stereo not drawn) to COC(=O)C1CCCN1C(=O)C(Cc1cn(S(=O)(=O)c2ccc(C)cc2)cn1)NC(=O)OC(C)(C)C (stereo not drawn), the TGI rises from 40.1 µM to > 100 µM.

In the case of COC(=O)C1=C(C)NC(C)=C(C(=O)OC)C1c1nc2sccn2c1[N+](=O)[O-], the TGI is reported as > 100 µM.
